{
  "source": "patent US20100240695A1",
  "about": "“[…] PHARMACEUTICAL COMPOSITIONS” (priority 2006, published 2010)",
  "origin": "cited, not measured here",
  "conditions": "average in a patient population",
  "data": [
    {"smiles": "Cc1ccc(-c2nc3ccc(C)cn3c2CC(=O)N(C)C)cc1", "note": "[zolpidem]", "values": [
      {"measurement": "plasma level below which residual sedative effects are essentially extinguished", "value": "below 20 ng/ml"}
    ]}
  ]
}
